In the NIST ThermoML archive (doi:10.1021/je600527c):
Numbers after ± are expanded uncertainties.

Key:
[1] = refractive index (Na D-line) (dimensionless); conditions: 298.15 K; 101.33 kPa; Liquid; Standard Abbe refractometry
[2] = 298.15 K; 101.33 kPa; Liquid; Pycnometric method

refractive index [1]: 1.37 ± 0.001
mass density [2]: 1045 ± 8 kg/m3
SMILES: CC(=O)O [acetic acid]
